“And” between values parts separate entries of the source, which are not always exact repeats. Equal entries are not always repeated.
Test system: 855422-203-R-J1-PDC spheroids with HUVEC/MSC, viability
Test: Anticancer human tumor 855422-203-R-J1-PDC patient-derived bladder carcinoma cell line growth inhibition [PI3K]
Settings: for viability, T/C: stronger effect = lower value
Method in brief: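 Spheroid viability read-out. Co-cultures contained the tumor line plus HUVEC and human MSCs. Each agent was paired with a PI3K inhibitor (inavolisib, alpelisib, duvelisib, copanlisib) across half-log dilutions starting at clinical Cmax, or at 10 microM when Cmax was unknown.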

[1] = curve of first compound, second compound 0.0316 µM
[2] = curve of first compound, second compound 0.1 µM
[3] = curve of first compound, second compound 0.316 µM
[4] = curve of first compound, second compound 1 µM
[5] = curve of first compound, second compound 3.16 µM
[6] = curve of first compound, second compound 10 µM
[7] = second compound 0.0316 µM, first compound 0.0316 µM
[8] = second compound 0.0316 µM, first compound 0.1 µM
[9] = second compound 0.0316 µM, first compound 0.316 µM
[10] = second compound 0.0316 µM, first compound 1 µM
[11] = second compound 0.0316 µM, first compound 3.16 µM
[12] = second compound 0.0316 µM, first compound 10 µM
[13] = second compound 0.1 µM, first compound 0.0316 µM
[14] = second compound 0.1 µM, first compound 0.1 µM
[15] = second compound 0.1 µM, first compound 0.316 µM
[16] = second compound 0.1 µM, first compound 1 µM
[17] = second compound 0.1 µM, first compound 3.16 µM
[18] = second compound 0.1 µM, first compound 10 µM
[19] = second compound 0.316 µM, first compound 0.0316 µM
[20] = second compound 0.316 µM, first compound 0.1 µM
[21] = second compound 0.316 µM, first compound 0.316 µM
[22] = second compound 0.316 µM, first compound 1 µM
[23] = second compound 0.316 µM, first compound 3.16 µM
[24] = second compound 0.316 µM, first compound 10 µM
[25] = second compound 1 µM, first compound 0.0316 µM
[26] = second compound 1 µM, first compound 0.1 µM
[27] = second compound 1 µM, first compound 0.316 µM
[28] = second compound 1 µM, first compound 1 µM
[29] = second compound 1 µM, first compound 3.16 µM
[30] = second compound 1 µM, first compound 10 µM
[31] = second compound 3.16 µM, first compound 0.0316 µM
[32] = second compound 3.16 µM, first compound 0.1 µM
[33] = second compound 3.16 µM, first compound 0.316 µM
[34] = second compound 3.16 µM, first compound 1 µM
[35] = second compound 3.16 µM, first compound 3.16 µM
[36] = second compound 3.16 µM, first compound 10 µM
[37] = second compound 10 µM, first compound 0.0316 µM
[38] = second compound 10 µM, first compound 0.1 µM
[39] = second compound 10 µM, first compound 0.316 µM
[40] = second compound 10 µM, first compound 1 µM
[41] = second compound 10 µM, first compound 3.16 µM
[42] = second compound 10 µM, first compound 10 µM
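Further: agents incubated with spheroids for one week before read-out.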
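Wherever viability, T/C is given: 100% = DMSO vehicle-treated control wells.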

Compound Cn1ncc(Cl)c1-c1cc(C(=O)NC(CN)Cc2cccc(F)c2)sc1Cl (configuration not stated) + CC(Nc1ncnc2nc[nH]c12)c1cc2cccc(Cl)c2c(=O)n1-c1ccccc1 has an IC50 [1] of 572 nM, an IC50 [2] of 706 nM and an IC50 [3] of 634 nM. The IC50 [4] was 695 nM, the IC50 [5] was 454 nM and the IC50 [6] was 411 nM. The viability, T/C [7] was 98.1%, the viability, T/C [8] was 78.2% and the viability, T/C [9] was 58%. The viability, T/C [10] was 41.9%, the viability, T/C [11] was 25.4% and the viability, T/C [12] was 9.19%. It also gave a viability, T/C [13] of 95.2%, a viability, T/C [14] of 84.5% and a viability, T/C [15] of 59.3%. It also gave a viability, T/C [16] of 46.4%, a viability, T/C [17] of 25.1% and a viability, T/C [18] of 8.79%. For the same compound, the viability, T/C [19] was 92.2%, the viability, T/C [20] was 74.7% and the viability, T/C [21] was 55.5%. The viability, T/C [22] was 48.3%, the viability, T/C [23] was 25.9% and the viability, T/C [24] was 6.18%. For the same compound, the viability, T/C [25] was 79.8%, the viability, T/C [26] was 75.4% and the viability, T/C [27] was 62.1%. For the same compound, the viability, T/C [28] was 45%, the viability, T/C [29] was 22.5% and the viability, T/C [30] was 10%. It also gave a viability, T/C [31] of 87.5%, a viability, T/C [32] of 75.3% and a viability, T/C [33] of 52.4%. The viability, T/C [34] was 39.5%, the viability, T/C [35] was 21.9% and the viability, T/C [36] was 8.05%. It also gave a viability, T/C [37] of 83.4%, a viability, T/C [38] of 71.8% and a viability, T/C [39] of 52.5%. It also gave a viability, T/C [40] of 36.9%, a viability, T/C [41] of 20.1% and a viability, T/C [42] of 5.58%.

With Cn1ncc(Cl)c1-c1cc(C(=O)NC(CN)Cc2cccc(F)c2)sc1Cl (configuration not stated) + Cc1nc(NC(=O)N2CCCC2C(N)=O)sc1-c1ccnc(C(C)(C)C(F)(F)F)c1 the IC50 [1] was 1020 nM, the IC50 [2] was 1160 nM and the IC50 [3] was 893 nM. For the same compound, the IC50 [4] was 637 nM, the IC50 [5] was < 31.6 nM and the IC50 [6] was < 31.6 nM. For the same compound, the viability, T/C [7] was 100%, the viability, T/C [8] was 78% and the viability, T/C [9] was 71%. It also gave a viability, T/C [10] of 50.1%, a viability, T/C [11] of 32.6% and a viability, T/C [12] of 9.93%. For the same compound, the viability, T/C [13] was 89.6%, the viability, T/C [14] was 77.6% and the viability, T/C [15] was 71.8%. For the same compound, the viability, T/C [16] was 50.9%, the viability, T/C [17] was 32.9% and the viability, T/C [18] was 9.68%. It also gave a viability, T/C [19] of 89.3%, a viability, T/C [20] of 74.6% and a viability, T/C [21] of 64.8%. The viability, T/C [22] was 52.4%, the viability, T/C [23] was 25.8% and the viability, T/C [24] was 7.56%. It also gave a viability, T/C [25] of 64.8%, a viability, T/C [26] of 65.3% and a viability, T/C [27] of 55.5%. For the same compound, the viability, T/C [28] was 46.5%, the viability, T/C [29] was 21.3% and the viability, T/C [30] was 3.26%. The viability, T/C [31] was 46.9%, the viability, T/C [32] was 43% and the viability, T/C [33] was 41.9%. It also gave a viability, T/C [34] of 31.4%, a viability, T/C [35] of 13.9% and a viability, T/C [36] of 2.81%. The viability, T/C [37] was 25.8%, the viability, T/C [38] was 23.4% and the viability, T/C [39] was 20.3%. For the same compound, the viability, T/C [40] was 16.3%, the viability, T/C [41] was 9.69% and the viability, T/C [42] was 0.43%.

With CC(=O)c1c(C)c2cnc(Nc3ccc(N4CCNCC4)cn3)nc2n(C2CCCC2)c1=O the viability, T/C (compound 0.000316 µM) was 105% (2×) and 96.8% and 106%, the viability, T/C (compound 0.001 µM) was 90.8% [middle of 4 runs] and the viability, T/C (compound 0.00316 µM) was 115% [middle of 4 runs]. For the same compound, the viability, T/C (compound 0.01 µM) was 100% (2×) and 98.9% and 98.4%, the viability, T/C (compound 0.0316 µM) was 99% [middle of 4 runs] and the viability, T/C (compound 0.1 µM) was 83.8% [middle of 4 runs]. For the same compound, the IC50 (curve of compound) was > 100 nM.

CCCS(=O)(=O)Nc1ccc(F)c(C(=O)c2c[nH]c3ncc(-c4ccc(Cl)cc4)cc23)c1F + Cc1nc(NC(=O)N2CCCC2C(N)=O)sc1-c1ccnc(C(C)(C)C(F)(F)F)c1 showed an IC50 [1] of 3910 nM, an IC50 [2] of 3900 nM and an IC50 [3] of 4420 nM. The IC50 [4] was 3530 nM, the IC50 [5] was < 31.6 nM and the IC50 [6] was < 31.6 nM. It also gave a viability, T/C [7] of 97.7%, a viability, T/C [8] of 89.5% and a viability, T/C [9] of 109%. For the same compound, the viability, T/C [10] was 82.5%, the viability, T/C [11] was 62.3% and the viability, T/C [12] was 0.1%. The viability, T/C [13] was 88.2%, the viability, T/C [14] was 90.2% and the viability, T/C [15] was 100%. It also gave a viability, T/C [16] of 90.7%, a viability, T/C [17] of 61.1% and a viability, T/C [18] of 0.16%. For the same compound, the viability, T/C [19] was 86.4%, the viability, T/C [20] was 87.4% and the viability, T/C [21] was 99.1%. For the same compound, the viability, T/C [22] was 85.3%, the viability, T/C [23] was 70.8% and the viability, T/C [24] was 0.13%. The viability, T/C [25] was 71.4%, the viability, T/C [26] was 74% and the viability, T/C [27] was 68.9%. The viability, T/C [28] was 72.8%, the viability, T/C [29] was 53.6% and the viability, T/C [30] was 0.11%. For the same compound, the viability, T/C [31] was 45.3%, the viability, T/C [32] was 46.2% and the viability, T/C [33] was 38.4%. It also gave a viability, T/C [34] of 44%, a viability, T/C [35] of 25.9% and a viability, T/C [36] of 0.29%. The viability, T/C [37] was 25.3%, the viability, T/C [38] was 17.9% and the viability, T/C [39] was 23.2%. For the same compound, the viability, T/C [40] was 23.5%, the viability, T/C [41] was 13.6% and the viability, T/C [42] was 0.19%.

For CNC(=O)c1ccc(N2C(=S)N(c3ccc(C#N)c(C(F)(F)F)c3)C(=O)C2(C)C)cc1F + CC(Nc1ncnc2nc[nH]c12)c1cc2cccc(Cl)c2c(=O)n1-c1ccccc1, the IC50 [1] was > 10000 nM, the IC50 [2] was > 10000 nM and the IC50 [3] was > 10000 nM. The IC50 [4] was > 10000 nM, the IC50 [5] was > 10000 nM and the IC50 [6] was > 10000 nM. The viability, T/C [7] was 111%, the viability, T/C [8] was 93% and the viability, T/C [9] was 109%. It also gave a viability, T/C [10] of 89.1%, a viability, T/C [11] of 86.2% and a viability, T/C [12] of 75.4%. The viability, T/C [13] was 117%, the viability, T/C [14] was 91.1% and the viability, T/C [15] was 104%. It also gave a viability, T/C [16] of 86.6%, a viability, T/C [17] of 74.3% and a viability, T/C [18] of 68.5%. For the same compound, the viability, T/C [19] was 96.9%, the viability, T/C [20] was 105% and the viability, T/C [21] was 102%. The viability, T/C [22] was 80.2%, the viability, T/C [23] was 76.5% and the viability, T/C [24] was 63.1%. For the same compound, the viability, T/C [25] was 97.4%, the viability, T/C [26] was 102% and the viability, T/C [27] was 106%. It also gave a viability, T/C [28] of 91.4%, a viability, T/C [29] of 73% and a viability, T/C [30] of 69.1%. For the same compound, the viability, T/C [31] was 100%, the viability, T/C [32] was 100% and the viability, T/C [33] was 100%. The viability, T/C [34] was 84.3%, the viability, T/C [35] was 76% and the viability, T/C [36] was 77.7%. The viability, T/C [37] was 89%, the viability, T/C [38] was 80.9% and the viability, T/C [39] was 95.8%. The viability, T/C [40] was 81%, the viability, T/C [41] was 77.4% and the viability, T/C [42] was 68.4%.

In the case of Cn1ncc(Cl)c1-c1cc(C(=O)NC(CN)Cc2cccc(F)c2)sc1Cl (configuration not stated), the viability, T/C (compound 0.0316 µM) is reported as 93.2% [middle of 4 runs], the viability, T/C (compound 0.1 µM) is reported as 75.2% [middle of 4 runs] and the viability, T/C (compound 0.316 µM) is reported as 69.4% [middle of 4 runs]. For the same compound, the viability, T/C (compound 1 µM) was 49.7% [middle of 4 runs], the viability, T/C (compound 3.16 µM) was 28.2% [middle of 4 runs] and the viability, T/C (compound 10 µM) was 8.18% [middle of 4 runs]. The IC50 (curve of compound) was 936 nM [middle of 4 runs].
